Reference: ChEMBL document CHEMBL1201862, “PubChem BioAssay data set” (2004)
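Five concentrations, 48 hours, 96-well plates. The concentration for 50% growth inhibition is given as GI50.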 Activity calls are given as the source filed them. No stated cut-off is given here; in the data, active = GI50 up to about 1.1 µM and inactive = higher.

Columns and labels:
Assay in all cases: NCI-60 cell line screen, 48 h
[1] = tested on: M19-MEL
[2] = tested on: XF498
[3] = tested on: DMS-114
[4] = tested on: HOP-18
[5] = tested on: DLD-1
[6] = tested on: KM-20L2
[7] = tested on: DMS-273
[8] = tested on: SNB-78
[9] = tested on: RXF 631

| SMILES | GI50 [1] | GI50 [2] | GI50 [3] | GI50 [4] | GI50 [5] | GI50 [6] | GI50 [7] | GI50 [8] | GI50 [9] |
| --- | --- | --- | --- | --- | --- | --- | --- | --- | --- |
| CCCCCCCCCC[S+]([O-])CC(CO)NC(=O)/C=C/c1c(C)nc(O)nc1O (stereo unspecified) | 0.475 µM (active) | 0.0376 µM (active) | 0.152 µM (active) | 1.49 µM (inactive) | 0.476 µM (active) | 0.695 µM (active) | 0.37 µM (active) | 0.718 µM (active) | – |
| CCN(CC)CCC(=O)N1C/C(=C/c2ccccc2)C(=O)/C(=C\c2ccccc2)C1 | 1.39 µM (inactive) | 2.63 µM (inactive) | 1.79 µM (inactive) | 2.8 µM (inactive) | 1.29 µM (inactive) | 1.71 µM (inactive) | 1.42 µM (inactive) | – | – |
| CCOC(=O)c1nc(-c2ccccc2)oc1OCC | > 100 µM (inactive) | 21.2 µM (inactive) | > 100 µM (inactive) | > 100 µM (inactive) | > 100 µM (inactive) | > 100 µM (inactive) | 90.2 µM (inactive) | > 100 µM (inactive) | – |
| CCOC(=O)NC(=O)c1cn(CC(=O)NCC(=O)NCC(=O)NCCCN2CCN(CCCNC(=O)CNC(=O)CNC(=O)Cn3cc(C(=O)NC(=O)OCC)c(=O)[nH]c3=O)CC2)c(=O)[nH]c1=O | > 100 µM (inactive) | > 100 µM (inactive) | > 100 µM (inactive) | > 100 µM (inactive) | > 100 µM (inactive) | > 100 µM (inactive) | > 100 µM (inactive) | > 100 µM (inactive) | > 100 µM (inactive) |
| O=C1CCC2(O)c3ccccc3C2Cc2ccccc21 (stereo unspecified) | > 100 µM (inactive) | > 100 µM (inactive) | > 100 µM (inactive) | > 100 µM (inactive) | > 100 µM (inactive) | > 100 µM (inactive) | > 100 µM (inactive) | > 100 µM (inactive) | – |
| Cc1cc(O)nc(NNC(C#N)c2c(O)ccc3ccccc23)n1 (stereo unspecified) | 4.68 µM (inactive) | – | 2.87 µM (inactive) | 4.49 µM (inactive) | 3.42 µM (inactive) | 24.8 µM (inactive) | 3.87 µM (inactive) | 19.3 µM (inactive) | – |
| COc1ccc2c(=O)c([Se]c3coc4cc(OC)ccc4c3=O)coc2c1 | 28.3 µM (inactive) | > 100 µM (inactive) | 17.4 µM (inactive) | > 100 µM (inactive) | 36.6 µM (inactive) | > 100 µM (inactive) | 53.2 µM (inactive) | 22.7 µM (inactive) | – |
| COc1ccc(C(=C[N+](=O)[O-])c2ccc(OC)cc2)cc1 | – | – | 4.13 µM (inactive) | > 100 µM (inactive) | 16.7 µM (inactive) | 10.6 µM (inactive) | 2.74 µM (inactive) | 14.7 µM (inactive) | 14 µM (inactive) |
| N/N=C(/C(=O)Nc1cccc(Cl)c1)C(C(=O)c1ccc(O)cc1O)C1OC(=O)c2ccccc21 (stereo unspecified) | > 100 µM (inactive) | – | > 100 µM (inactive) | – | – | > 100 µM (inactive) | 65.9 µM (inactive) | > 100 µM (inactive) | – |
| O=C(/C=C\c1cccc2ccccc12)c1ccc(Br)cc1 | 19 µM (inactive) | – | 15 µM (inactive) | 19.2 µM (inactive) | 20.5 µM (inactive) | 16.3 µM (inactive) | 16.7 µM (inactive) | 20.6 µM (inactive) | – |
| O=C(Nc1ccc(Sc2ccc(/N=N/c3c(O)c(S(=O)(=O)O)cc4cc(S(=O)(=O)O)ccc34)cc2)cc1)c1ccc(/N=N/c2c(O)ccc3c(S(=O)(=O)O)cc(S(=O)(=O)O)cc23)cc1 | 16.6 µM (inactive) | 28.2 µM (inactive) | – | 33 µM (inactive) | 37.7 µM (inactive) | 58.7 µM (inactive) | 25.9 µM (inactive) | 36.4 µM (inactive) | 41.3 µM (inactive) |
| CCOC(=O)[C@H]1Nc2ccc([N+](=O)[O-])cc2C2c3ccccc3CC21 (stereo partly specified) | 20.8 µM (inactive) | 30 µM (inactive) | 15.9 µM (inactive) | – | 25.4 µM (inactive) | 20.6 µM (inactive) | 12.6 µM (inactive) | 42.1 µM (inactive) | – |
| CCCCCCCCCCCCC(CC)CCCCC(=O)O (stereo unspecified) | > 100 µM (inactive) | > 100 µM (inactive) | > 100 µM (inactive) | > 100 µM (inactive) | > 100 µM (inactive) | > 100 µM (inactive) | > 100 µM (inactive) | > 100 µM (inactive) | > 100 µM (inactive) |
| COc1cc2c(cc1OC)C1(c3ccccc3)ON=C(c3ccccc3)N1CS2 (stereo unspecified) | > 100 µM (inactive) | > 100 µM (inactive) | > 100 µM (inactive) | > 100 µM (inactive) | > 100 µM (inactive) | > 100 µM (inactive) | > 100 µM (inactive) | > 100 µM (inactive) | > 100 µM (inactive) |
| CCCCOP1(=O)CC(C)=C(Cl)C(C)(OC)C1 (stereo unspecified) | > 100 µM (inactive) | > 100 µM (inactive) | – | – | 44.8 µM (inactive) | > 100 µM (inactive) | > 100 µM (inactive) | > 100 µM (inactive) | – |
| O=C1CCN2CCC(=O)c3c2c(cc2ccccc32)N1 | > 100 µM (inactive) | 26.8 µM (inactive) | > 100 µM (inactive) | – | > 100 µM (inactive) | > 100 µM (inactive) | > 100 µM (inactive) | > 100 µM (inactive) | – |
| COC(=O)C1CCC(C)CC1=O (stereo unspecified) | > 100 µM (inactive) | > 100 µM (inactive) | > 100 µM (inactive) | – | > 100 µM (inactive) | – | > 100 µM (inactive) | > 100 µM (inactive) | > 100 µM (inactive) |
| COc1cccc(NC(=O)CSc2nnc(Cc3ccccc3)o2)c1 | > 100 µM (inactive) | – | > 100 µM (inactive) | > 100 µM (inactive) | > 100 µM (inactive) | > 100 µM (inactive) | > 100 µM (inactive) | > 100 µM (inactive) | – |
| CC1=C(SC#N)S(=O)(=O)N(c2ccccc2)C(C)=C1SC#N | 29.5 µM (inactive) | 16.8 µM (inactive) | 5.92 µM (inactive) | – | 33.3 µM (inactive) | – | 50.5 µM (inactive) | 78.3 µM (inactive) | – |
| Cc1cc2occ(C)c(=O)c2c2c1OC(C)(C)S2 | > 100 µM (inactive) | > 100 µM (inactive) | > 100 µM (inactive) | > 100 µM (inactive) | > 100 µM (inactive) | > 100 µM (inactive) | > 100 µM (inactive) | – | – |
| COc1cc2c3c(c1OC)-c1ccccc1C(C(OC(C)=O)c1ccccc1)C3N(C)CC2 (stereo unspecified) | 28.8 µM (inactive) | – | 28.4 µM (inactive) | > 100 µM (inactive) | 5.97 µM (inactive) | 27.1 µM (inactive) | 19.3 µM (inactive) | 32.7 µM (inactive) | – |
| CCOC(=O)CC(NC(=O)c1nc[nH]c1[N+](=O)[O-])C(=O)OCC (stereo unspecified) | 82 µM (inactive) | – | 43.3 µM (inactive) | – | 39 µM (inactive) | – | 40.6 µM (inactive) | – | – |
| COc1cc2c(c(OC)c1OC)-c1ccc(SC)c(=O)cc1[C@@H](NCc1cccc(C#N)c1)CC2 | 0.0193 µM (active) | 0.0257 µM (active) | 0.0153 µM (active) | – | 0.0245 µM (active) | 0.0131 µM (active) | 0.00647 µM (active) | 0.0197 µM (active) | 0.0075 µM (active) |
| O=C(NC12CC3CC(CC(C3)C1)C2)C(=O)c1c[nH]c2ccccc12 | 18.7 µM (inactive) | 13.1 µM (inactive) | 18 µM (inactive) | – | – | 5.94 µM (inactive) | 14.8 µM (inactive) | 18 µM (inactive) | – |
| COc1ccc(CNc2cc(OC)c(OC)c(OC)c2)cc1 | 4.57 µM (inactive) | 21.3 µM (inactive) | 3.01 µM (inactive) | > 21.7 µM (inactive) | 5.66 µM (inactive) | 2.8 µM (inactive) | 2.09 µM (inactive) | 4.62 µM (inactive) | 3.47 µM (inactive) |
